Measured values taken from patent US20240027453A1, “METHOD FOR DETECTION AND QUANTITATIVE MONITORING OF INFECTIONS WITH HERPESVIRUSES” (The Trustees of Princeton University, priority 2020, published 2024).
Like-named read-outs stand apart in the source and are kept apart here.

Test system: HCMV
Format: cell-based
Settings: DE
Experimental: In example herpesvirus PRM assay methods shown herein, cell pellets were lysed in 2% SDS, 100 mM NaCl, 0.5 mM EDTA, 50 mM Tris, pH 8.2, and 50 μg of protein was reduced and alkylated with 25 mM TCEP and 50 mM CAM respectively for 20 min at 70° C. Proteins were then precipitated via methanol chloroform precipitation (Wessel & Flugg, Anal Biochem. 138(1):141-143, 1984), resuspended in 50 mM HEPES, pH 8.2 and digested overnight with trypsin (50:1 protein:enzyme w/w ratio). Digested peptides were desalted by SDB-RPS StageTip as previously described (Lum et al., Cell Syst., 7(6):[…], 2018; Greco et al., Methods Mol Biol 1410:39-63, 2016; Federspiel & Cristea, Methods Mol Biol., 1977:115-143, 2019).
Peptides (1.0 μg on column) were analyzed by LC-MS/MS using a Dionex Ultimate 3000 UHPLC coupled online to an EASYSpray ion source and a Q Exactive HF. Peptides were separated on an EASYSpray C18 column (75 μm×25 cm) heated to 50° C. using a linear gradient of 5% B to 32% B over 60 min at a flow rate of 250 nL/min and were ionized at 1.7 kv. Mobile phase A consisted of 0.1% FA in H2O and mobile phase B consisted of 0.1% FA, 2.9% H2O in ACN.
The PRM method was controlled by a peptide inclusion list with retention time windows of 6 min for selected precursor ions.
The PRM assay was developed and analyzed using the open-source software Skyline (Maclean et al., Bioinformatics 26(7):966-968, 2010). Summed area under the curve of 3-4 transitions per peptide was used for quantitation. Targeted peptides were normalized to host protein loading control peptides. Peptide values for each sample were scaled to the average of each peptide across all runs. The average of multiple peptides was used as the inferred value for the protein measurement when more than one peptide was quantified (Federspiel et al., PLoS Biol. 17(9):e3000437. Doi: 10.1371/journal.pbio.3000437). PRM quantitation data were graphed using the Python Seaborn and Matplotlib libraries.
MRC5 primary human fibroblasts (HFs) (ATCC CCL-171) were used as the model system for HSV-1 and HCMV infections and were cultured in complete growth medium (DMEM supplemented with 10% fetal bovine serum and 1% penicillin-streptomycin antibiotics) at 37° C. and 5% CO2. iSLK.219 cells harboring latent KSHV (a gift from Dr. Britt Glaunsinger, University of California, Berkeley) were grown in complete growth medium supplemented with 500 μg/ml hygromycin (ThermoFisher Scientific, 10687010) at 37° C. and 5% CO2. All cells were used for experiments within a maximum of 10 passages.
Wild type HSV-1 strain 17+ (a gift from Beate Sodeik, Hannover Medical School, Hannover, Germany) was propagated as previously described (Diner et al., 2015). Briefly, PO stocks were generated by electroporating pBAC-HSV-1 into U-2 OS cells. […] In a similar manner, wild type HCMV strain AD169 was produced from BAC electroporation into HFs and working stocks were propagated by infecting HFs at a low level. In both cases, cell-associated virus was released by sonication, combined with supernatant virus, then concentrated by ultracentrifugation (20,000 rpm, 2 hours, 4° C. with SW28 swinging bucket rotor [Beckman Coulter]) over a 10% ficoll (HSV-1) or 20% sorbitol (HCMV) cushion. Virus stock titers were determined by plaque assay for HSV-1 or tissue culture infectious dose (TCID50) for HCMV and infections were performed at a multiplicity of infection (MOI) of 3.
12 hours prior to virus infection or reactivation, cells were treated with either the small molecule drug or DMSO/PBS control at an equivalent volume. […] For infection cycles lasting longer than 24 hours, small molecule drugs were re-added to the cell culture medium every 24 hours. Upon collection, cells were rinsed with PBS, scraped into a microcentrifuge tube, pelleted by centrifugation, and rinsed again with PBS.

## Nc1ccn(C[C@@H](CO)OCP(=O)(O)O)c(=O)n1 [CDV, cidofovir]
Timepoint 72
  UL119/UL118 (P16739) protein, numerical value of heatmap FIG. 6C: 0.9178
  UL128 (P16837) protein, numerical value of heatmap FIG. 6C: 0.3157
  US8 (P09730) protein, numerical value of heatmap FIG. 6C: 1.064
  US9 (P09729) protein, numerical value of heatmap FIG. 6C: 1.073
  US12 (P09721) protein, numerical value of heatmap FIG. 6C: 1.061
  US13 (P09720) protein, numerical value of heatmap FIG. 6C: 1.062
  US14 (P09719) protein, numerical value of heatmap FIG. 6C: 0.8113
  US18 (P69334) protein, numerical value of heatmap FIG. 6C: 1.076
  US22 (P09722) protein, numerical value of heatmap FIG. 6C: 0.7585
  US23 (P09701) protein, numerical value of heatmap FIG. 6C: 0.7114
  US24 (P09700) protein, numerical value of heatmap FIG. 6C: 0.6653
  gB (P06473) protein, numerical value of heatmap FIG. 6C: 0.7243
  sp|P09710|IR01_HCMVA (P09710) protein, numerical value of heatmap FIG. 6C: 0.4528
Timepoint 96
  CVC2 (P16726) protein, numerical value of heatmap FIG. 6C: 0.8812
  DBP (P17147) protein, numerical value of heatmap FIG. 6C: 1.215
  HELI (P16736) protein, numerical value of heatmap FIG. 6C: 0.6134
  NEC1 (P16794) protein, numerical value of heatmap FIG. 6C: 0.6641
  NEC2 (P16791) protein, numerical value of heatmap FIG. 6C: 0.9731
  RIR1 (P16782) protein, numerical value of heatmap FIG. 6C: 0.8478
  TRM1 (P16724) protein, numerical value of heatmap FIG. 6C: 0.8347
  UL4 (P17146) protein, numerical value of heatmap FIG. 6C: 1.514
  UL26 (P16762) protein, numerical value of heatmap FIG. 6C: 1.007
  UL32 (P08318) protein, numerical value of heatmap FIG. 6C: 0.8551
  UL34 (P16812) protein, numerical value of heatmap FIG. 6C: 0.6849
  UL35 (P16766) protein, numerical value of heatmap FIG. 6C: 0.6647
  UL38 (P16779) protein, numerical value of heatmap FIG. 6C: 0.8749
  UL44 (P16790) protein, numerical value of heatmap FIG. 6C: 0.9654
  UL48 (P16785) protein, numerical value of heatmap FIG. 6C: 0.7541
  UL54 (P08546) protein, numerical value of heatmap FIG. 6C: 1.256
  UL71 (P16823) protein, numerical value of heatmap FIG. 6C: 1.299
  UL78 (P16751) protein, numerical value of heatmap FIG. 6C: 0.7903
  UL84 (P16727) protein, numerical value of heatmap FIG. 6C: 0.7779
  UL95 (P16801) protein, numerical value of heatmap FIG. 6C: 0.5596
  UL96 (P16787) protein, numerical value of heatmap FIG. 6C: 0.7142
  UL97 (P16788) protein, numerical value of heatmap FIG. 6C: 0.8338
  UL98 (P16789) protein, numerical value of heatmap FIG. 6C: 1.012
  UL102 (P16827) protein, numerical value of heatmap FIG. 6C: 0.9332
  UL104 (P16735) protein, numerical value of heatmap FIG. 6C: 0.5729
  UL112/UL113 (P17151) protein, numerical value of heatmap FIG. 6C: 0.7439
  UL114 (P16769) protein, numerical value of heatmap FIG. 6C: 0.9743
  UL119/UL118 (P16739) protein, numerical value of heatmap FIG. 6C: 0.7206
  UL128 (P16837) protein, numerical value of heatmap FIG. 6C: 0.8111
  US8 (P09730) protein, numerical value of heatmap FIG. 6C: 0.7796
  US9 (P09729) protein, numerical value of heatmap FIG. 6C: 0.9079
  US12 (P09721) protein, numerical value of heatmap FIG. 6C: 0.6688
  US13 (P09720) protein, numerical value of heatmap FIG. 6C: 0.8741
  US14 (P09719) protein, numerical value of heatmap FIG. 6C: 0.6845
  US18 (P69334) protein, numerical value of heatmap FIG. 6C: 1.116
  US22 (P09722) protein, numerical value of heatmap FIG. 6C: 1.105
  US23 (P09701) protein, numerical value of heatmap FIG. 6C: 0.7852
  US24 (P09700) protein, numerical value of heatmap FIG. 6C: 0.7832
